{
  "source": "paper PMC3906678",
  "about": "(Clinical cancer research : an official journal of the …, 2012)",
  "key": {"[1]": {"tested_on": "P-AKT Ser473", "settings": "biopsies from treated patients; cited from earlier work"}, "[2]": {"tested_on": "P-S6", "settings": "biopsies from treated patients; cited from earlier work"}, "[3]": {"tested_on": "metastatic melanoma", "settings": "temsirolimus; cited from earlier work"}, "[4]": {"tested_on": "P-AKT Ser473", "settings": "single-agent, matching biopsies, head and neck cancer patients; cited from earlier work"}, "[5]": {"settings": "human, in vivo"}, "[6]": {"tested_on": "metastatic melanoma", "settings": "cited from earlier work"}},
  "note": "Like-named read-outs stand apart in the source and are kept apart here.",
  "data": [
    {"smiles": "CO[C@H]1C[C@@H]2CC[C@@H](C)[C@@](O)(O2)C(=O)C(=O)N2CCCC[C@H]2C(=O)O[C@H]([C@H](C)C[C@@H]2CC[C@@H](OCCO)[C@H](OC)C2)CC(=O)[C@H](C)/C=C(\\C)[C@@H](O)[C@@H](OC)C(=O)[C@H](C)C[C@H](C)/C=C/C=C/C=C/1C", "note": "[everolimus]", "values": [
      {"measurement": "Change in P-AKT Ser473", "setting": "[1]", "value": "increase"},
      {"measurement": "Change in P-S6", "setting": "[2]", "value": "decrease"}
    ]},
    {"smiles": "CO[C@H]1C[C@@H]2CC[C@@H](C)[C@@](O)(O2)C(=O)C(=O)N2CCCC[C@H]2C(=O)O[C@H]([C@H](C)C[C@@H]2CC[C@@H](OC(=O)C(C)(CO)CO)[C@H](OC)C2)CC(=O)[C@H](C)/C=C(\\C)[C@@H](O)[C@@H](OC)C(=O)[C@H](C)C[C@H](C)/C=C/C=C/C=C/1C", "note": "[Temsirolimus]", "values": [
      {"measurement": "Patients who achieved a clinical response", "setting": "[3]", "value": "1 of 33"},
      {"measurement": "Change in P-AKT Ser473", "setting": "[4]", "value": "lack of increase"}
    ]},
    {"smiles": "CNC(=O)c1cc(Oc2ccc(NC(=O)Nc3ccc(Cl)c(C(F)(F)F)c3)cc2)ccn1", "note": "[Sorafenib]", "values": [
      {"measurement": "Mean Cmax and Cavg at steady-state on Day 15 compared to Day 1", "setting": "[5]", "value": "2-4 fold"},
      {"measurement": "Clinical response rate", "setting": "[6]; melanoma patients, sorafenib", "value": 3, "unit": "%"},
      {"measurement": "Patients who achieved a clinical response", "setting": "[6]; metastatic melanoma patients, sorafenib monotherapy", "value": "one of 37"}
    ]}
  ]
}
